This note sets out measurements from patent publication US20200223826A1, “Glucose-6-Phosphate Dehydrogenase (G6PD)-Modulating Agents And Methods Of Treating G6PD Deficiency” (The Board of Trustees of the Leland Stanford Junior …, priority 2017, published 2020).

The structures appear in SMILES notation.

The subject of assay [1] is band 3 protein in human erythrocytes. The assay can be described thus: Band 3 protein clustering in erythrocytes. The format is cell-based. As to conditions: chloroquine or diamide treatment.
The target of assay [2] is 6-phosphogluconate dehydrogenase (6PGD) (Homo sapiens, UniProt P52209). Nature of the assay: Selectivity: dimerization or activity of other NAD/NADP+-dependent enzymes. The format is biochemical.
Sequence of 6-phosphogluconate dehydrogenase (6PGD) (P52209 whole entry): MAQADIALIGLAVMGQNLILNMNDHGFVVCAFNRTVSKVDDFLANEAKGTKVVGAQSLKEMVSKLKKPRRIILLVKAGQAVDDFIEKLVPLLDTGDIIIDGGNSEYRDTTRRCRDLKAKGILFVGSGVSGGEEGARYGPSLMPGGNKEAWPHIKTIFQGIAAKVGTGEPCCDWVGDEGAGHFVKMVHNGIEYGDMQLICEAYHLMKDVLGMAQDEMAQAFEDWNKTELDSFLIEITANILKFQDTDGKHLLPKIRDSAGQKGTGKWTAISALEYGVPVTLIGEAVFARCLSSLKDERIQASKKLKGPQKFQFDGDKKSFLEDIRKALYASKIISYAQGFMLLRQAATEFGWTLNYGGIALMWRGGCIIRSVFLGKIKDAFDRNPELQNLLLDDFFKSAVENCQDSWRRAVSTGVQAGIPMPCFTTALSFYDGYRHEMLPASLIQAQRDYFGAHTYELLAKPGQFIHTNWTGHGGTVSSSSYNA
The target in assay [3] is T1, G6PD in human erythrocytes (Homo sapiens, UniProt P11413).
T1 construct: host or cells: human erythrocytes
T1 sequence (P11413 2-515 limits assumed): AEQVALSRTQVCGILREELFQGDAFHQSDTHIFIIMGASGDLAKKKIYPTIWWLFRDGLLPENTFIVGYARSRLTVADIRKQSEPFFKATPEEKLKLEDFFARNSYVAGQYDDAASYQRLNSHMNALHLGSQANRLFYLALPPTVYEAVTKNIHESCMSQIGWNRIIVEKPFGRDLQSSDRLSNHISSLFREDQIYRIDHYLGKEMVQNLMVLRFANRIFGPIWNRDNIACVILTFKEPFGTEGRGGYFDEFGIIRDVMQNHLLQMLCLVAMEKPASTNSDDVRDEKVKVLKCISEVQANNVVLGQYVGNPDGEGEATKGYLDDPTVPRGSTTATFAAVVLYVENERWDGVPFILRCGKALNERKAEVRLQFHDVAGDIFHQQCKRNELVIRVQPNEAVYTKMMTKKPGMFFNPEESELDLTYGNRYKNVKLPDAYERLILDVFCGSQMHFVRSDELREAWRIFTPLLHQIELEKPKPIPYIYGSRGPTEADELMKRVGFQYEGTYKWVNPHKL
The assay can be described thus: G6PD activity in erythrocytes under oxidative stressors. In kind it is cell-based. The following applies: drug-induced oxidative stress. As to the method:
(§1) De-identified blood samples were obtained from the Stanford Blood Center. Erythrocytes were collected by filtering the samples through a cellulose slurry to remove platelets and leukocytes and then washed with saline. G6PD activity was measured (Beutler E. Red cell metabolism: A manual of biochemical methods (3rd edition). Grune & Stratton (1984)). […] A 5% erythrocyte suspension was pre-incubated with 1-5 μM AG1 at 4° C. overnight, which was followed by treatment with (or without) either 1 mM chloroquine (CQ) or 1 mM diamide for 3-4 hours at 37° C. (for hemolysis assay with chloroquine, the mixture was incubated under light). Then centrifugation at 1,000 rpm for 5 minutes was followed. Hemoglobin release in the supernatant was monitored by measuring absorbance at 540 nm. […] After wash, the samples were lysed with 0.1% Triton X-100 (final concentration), and the florescence was analyzed with excitation/emission at 485/525 nm. GSH measurement was determined using a Cayman glutathione assay kit (Cayman Chemicals, 703002). […] The absorbance was read at 412 nm. For storage assay, a 5% erythrocyte suspension was stored at 4° C. with and without 1 μM AG1, and hemolysis and G6PD activity were monitored every week for 28 days to examine whether AG1 improves preservation of erythrocytes over time. Protein leakage was also examined by measuring the absorbance of the supernatant of samples at 280 nm. […]

Assay [4] concerns zebrafish embryos. Nature of the assay: NADPH levels in lysates of pooled zebrafish embryos. The format is in vivo. As to conditions: lysates of pooled AG1-treated embryos. The method, then:
(§2) Embryos were dechorinated with pronase at 24 hours post fertilization (hpf) and treated with 50 μg/ml of chloroquine and/or AG1 by directly adding the compounds to the well. For ROS measurements, embryos were incubated with compounds for 2 hours, and then the ROS detecting reagent (CM-H2DCFDA) was added at a final concentration of 500 ng/ml to the well for a total treatment time of 5 hours. One embryo was placed to each well of a black, opaque 96-well plate. The florescence was analyzed with excitation/emission at 485/525 nm. After ROS assays, embryos at about 32 hpf were pooled and lysed in buffer containing 50 mM Tris (pH 7.4), 150 mM NaCl, 1 mM EDTA, 0.1% NP-40, and protease inhibitor cocktail, which was followed by three cycles of freeze and thawing in liquid nitrogen. The lysate was centrifuged at 14,000 rpm at 4° C. for 15 minutes. Total protein concentration in the supernatants (total lysate) was determined by Bradford method. 50 μg of total lysate was loaded onto 10% SDS-PAGE gels and the protein level was examined by Western blot using anti-G6PD antibody (Abcam (G6PD: AB87230)). 10 μg of total lysate was used for enzymatic assay. 50 μg of the lysate was used to measure NADPH levels using a NADPH quantification kit (Biovision), according to the manufacturer's instructions.

Assay [5] has as its system SH-SY5Y cells expressing the Canton variant. The assay can be described thus: Viability of SH-SY5Y cells expressing Canton variant. The format is cell-based, human. As to the method:
Prior to the cellular-based assays using SH-SH5Y cells, duration of overexpression of WT G6PD and Canton variant was examined by transfecting the cells seeded in a 12-well plate. The genes encoding human WT G6PD and Canton variant were first PCR-amplified, which was then inserted into pcDNA 3.1/myc-His C (ThermoFisher Scientific) using HindIII and XhoI. 0.5 μg of cDNA and 1.5 μg of lipofectamine (Invitrogen) were diluted in 50 μL of Opti-MEM medium respectively and incubated for 5 minutes. The diluted DNA was combined with diluted lipofectamine, which was followed by incubation for 20 minutes prior to the addition to cells.
Cell viability was measured using a Cell-Counting Kit-8 (CCK-8, Dojindo), utilizing WST-8 [2-(2-methoxy-4-nitrophenyl)-3-(4-nitrophenyl)-5-(2,4-disulfophenyl)-2H-tetrazolium monosodium salt, according to the manufacturer's instructions. Cells were subjected to serum starvation for 48 hours before measurement. Cells in 100 μL of medium per well were treated with 10 μL of CCK-8 solution and incubated for 2 hours at 37° C. The absorbance was read at 450 nm. Viability of lymphocytes was measured by staining with a 0.4% solution of trypan blue in buffered isotonic salt solution (pH 7.2). The viability was calculated as the number of viable cells (non-stained by the dye) divided by the total number of cells within the grids on the hemacytometer. […]

The subject of assay [6] is zebrafish embryos. Nature of the assay: ROS levels in chloroquine-treated zebrafish embryos. The format is in vivo. As to conditions: chloroquine 50 μg/ml. The method, then: as §2
The subject of a further assay is human erythrocytes. Nature of the assay: Erythrocyte refrigerated storage assay, hemolysis. The format is cell-based. The following applies: 672 h, read-out: reduction of hemolysis. As to the method:
as §1

In assay [7] the test system is fibroblasts with the Mediterranean variant. Nature of the assay: Viability of fibroblasts, with and without siRNA knockdown. The format is cell-based, human. The method, then:
Cell viability was measured using a Cell-Counting Kit-8 (CCK-8, Dojindo), utilizing WST-8 [2-(2-methoxy-4-nitrophenyl)-3-(4-nitrophenyl)-5-(2,4-disulfophenyl)-2H-tetrazolium monosodium salt, according to the manufacturer's instructions. Cells were subjected to serum starvation for 48 hours before measurement. Cells in 100 μL of medium per well were treated with 10 μL of CCK-8 solution and incubated for 2 hours at 37° C. The absorbance was read at 450 nm. Viability of lymphocytes was measured by staining with a 0.4% solution of trypan blue in buffered isotonic salt solution (pH 7.2). The viability was calculated as the number of viable cells (non-stained by the dye) divided by the total number of cells within the grids on the hemacytometer. Cells were treated with 1 μM of the compound 24 hours before the measurement.
Endogenous G6PD was knocked down in each cell line as follows; 2 pmol of siRNA G6PD (Santa Cruz Biotechnology) and 0.5 μg lipofectamine (Invitrogen) were diluted in 10 μL of Opti-MEM medium respectively and incubated for 5 minutes. The diluted siRNA was combined with diluted lipofectamine, which was followed by additional incubation for 20 minutes prior to the addition to cells in a 96-well plate.

Assay [8] concerns lymphocytes carrying the Canton variant. The assay can be described thus: Cellular ROS measurement in lymphocytes. In kind it is cell-based, human. The following applies: treatment with AG1 for 24 hours. As to the method:
Cells in a 96-well plate were incubated with chloromethyl-2′,7′-dichlorodihydrofluorescein diacetate (CM-H2DCFDA) at a final concentration of 5 μM in HBSS (Hank's balanced salt solution) for 30 minutes at 37° C. After wash, cells were treated with Hoechst 33342 (1:10,000 dilution, Molecular Probes) to stain nuclei and incubated for another 10 minutes at 37° C. Cells were washed in HBSS, and the florescence was analyzed with excitation/emission at 485/525 nm. Cells were subjected to serum starvation (50-75%) for 48 hours to induce oxidative stress and treated with the compound for 24 hours before measurement. The signal was normalized to nuclei staining (excitation/emission at 350/470 nm).

As for `SCCNCCc1c[nH]c2ccccc12` [AG1, 2-[2-(1H-indol-3-yl)ethylamino]ethanethiol], in [1], the “band 3 protein aggregation” value is “alleviated”. The “effect on dimerization or activity” value in [2] is on record as “no effect”. The G6PD activity result in [3] is “increased”. Also, the NADPH levels result in the assay with zebrafish embryos [4] is “significant increase”. In [5], the viability result was “mild increase”. Besides, in the assay on zebrafish embryos [6], the ROS levels result was “reduced”. Besides, the reduction of hemolysis at 1 µM in the assay on human erythrocytes stood at 12%. Besides, the rescue of viability result in assay [7] (Mediterranean G6PD expression knocked down by siRNA) is reported as “did not rescue”. In [7] (stress conditions), this compound had an improvement of viability of 22%. In [8], the ROS level result is recorded as “decreased”.
